Assay results published in publication PMC6826021 (Disease Models & Mechanisms, 2019).

Key:
[1] = tested on: Ca2+ influx in Etx-treated MDCK cells; assay type: cell-based, canine
Etx-treated MDCK cells [2] = assay type: cell-based, canine
Etx = details: cited from earlier work
[3] = biological target: Etx monomer binding to MDCK cells (Clostridium perfringens, UniProt Q02307); assay type: cell-based
[4] = biological target: Etx heptamer (oligomerization) (Clostridium perfringens, UniProt Q02307); assay type: cell-based
[5] = biological target: Etx pore formation in DPPC/cholesterol liposomes (Clostridium perfringens, UniProt Q02307); assay type: biochemical
Etx-Etx monomers = Etx-Etx monomers (Clostridium perfringens, UniProt Q02307); assay type: binding
Etx-treated MDCK cells [6] = assay type: cell-based, canine; remark: listed apart in the source
[7] = tested on: mitochondrial membrane potential in Etx-treated MDCK cells; assay type: cell-based, canine
[8] = tested on: ROS in Etx-treated MDCK cells; assay type: cell-based, canine
[9] = tested on: HMGB1 translocation in Etx-treated MDCK cells; assay type: cell-based, canine
[10] = tested on: Etx-challenged C57BL/6 mice; details: mouse, in vivo
C57BL/6 mice = details: mouse, in vivo

Chain of Etx-Etx monomers (Q02307 46-306 limits assumed): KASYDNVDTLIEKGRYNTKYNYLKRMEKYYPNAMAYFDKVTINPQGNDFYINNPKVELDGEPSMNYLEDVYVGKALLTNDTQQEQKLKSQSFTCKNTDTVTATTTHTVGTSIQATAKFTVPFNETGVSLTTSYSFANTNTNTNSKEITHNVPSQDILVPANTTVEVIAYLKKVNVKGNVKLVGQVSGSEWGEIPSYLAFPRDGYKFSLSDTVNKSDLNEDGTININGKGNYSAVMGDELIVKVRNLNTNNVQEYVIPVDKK
Chain of Etx heptamer (oligomerization) (Q02307 46-306 limits assumed): as above
Chain of Etx monomer binding to MDCK cells (Q02307 46-306 limits assumed): as above
Chain of Etx pore formation in DPPC/cholesterol liposomes (Q02307 46-306 limits assumed): as above

## C[C@H](CCC(=O)O)C[C@H](C)C[C@H](C)C(=O)/C=C(\O)[C@H](C)C[C@H](C)C/C=C/[C@@H](C)[C@@H](O)[C@@H](C)[C@@H](O)C[C@@H]1CC[C@@](C)([C@H]2CC[C@@](C)([C@@H](C)O)O2)O1 [ionomycin, reference compound]
[1]
  Ca2+ influx, Fluo-4 AM intensity by FACS: Clear intensity shift

## CCCCCCOC1O[C@H](CO)[C@@H](O)[C@H](O)[C@H]1O (stereo partly drawn) [Glycoside-6]
Etx-treated MDCK cells [2]
  protection of Etx-treated MDCK cells: concentration-dependent protection
  survival of Etx-challenged MDCK cells compared to Etx: greater than 50%

## c1ccc2nc3occc3cc2c1 [furo[2,3-b]quinoline]
Etx
  inhibition of Etx binding or oligomerization: none of them could inhibit

## O=C(O)CN(CCOCCOCCN(CC(=O)O)CC(=O)O)CC(=O)O [EGTA, reference compound]
[1]
  Ca2+ influx, Fluo-4 AM intensity by FACS: blocked the Etx-invoked influx

## CCCOC1O[C@H](CO)[C@@H](O)[C@H](O)[C@H]1O (stereo partly drawn) [Glycoside-2]
Etx-treated MDCK cells [2]
  protection of Etx-treated MDCK cells: concentration-dependent protection
  survival of Etx-challenged MDCK cells compared to Etx: greater than 50%

## CCCCOC1O[C@H](CO)[C@@H](O)[C@H](O)[C@H]1O (stereo partly drawn) [Glycoside-4]
Etx-treated MDCK cells [2]
  cell survival upon Etx challenge (MTT), pre- and post-treatment: increase in cell survival
  protection of Etx-treated MDCK cells: highest survival efficiency
  survival of Etx-challenged MDCK cells compared to Etx: greater than 50%
[3]
  effect on binding of Etx monomer to the cell membrane: no effect
[4]
  effect on Etx heptamer (oligomer) intensity: substantial decrease in heptamer intensity
[5]
  effect on pore formation in Etx-treated liposomes: tearings disappeared
Etx-Etx monomers
  Etx (protein-protein) interaction in SPR: no Etx (protein-protein) interaction could be seen
[1]
  Ca2+ entry, Fluo-4 AM fluorescence microscopy: complete reduction in Ca^2+ entry
  Ca2+ influx, Fluo-4 AM intensity by FACS: drastic reduction of Fluo-4 AM intensity
Etx-treated MDCK cells [6]
  PI+ cells: drastic reduction in PI^+ cells
  annexin V+/PI+ cells (phosphatidylserine exposure): absence of annexin V^+/PI^+ cells
[7]
  mitochondrial membrane potential (ΨΔm), JC-1: could stabilize ΨΔm
[8]
  ROS levels, DCFDA: decreased levels of ROS
[9]
  HMGB1 localization: largely remained in the nucleus
[10]
  mice protected: 60%
  mice with improved liver (H&E): 60%
  mice with protected brain structures (H&E): 60%
[10]; ip, 50 mg/kg
  death rate: 40%
C57BL/6 mice
  mortality or clinical signs (seizures, convulsions and depression): No mortality or clinical signs

## c1ccc2c(c1)Cc1cccc3noc-2c13 [6H-anthra[1,9-cd]isoxazol]
Etx
  inhibition of Etx binding or oligomerization: none of them could inhibit
